Data published in patent US11564388B2, “Supercooling methods for preservation of biological samples” (X-Therma, Inc., priority 2017, dated 2023).
Entries after “also recorded” stand apart in the source; their conditions may differ.

What was measured:
[1] = Crystallographic x-ray diffraction (XRD) ice formation assay; assay type: physicochemical; conditions: for reduction of necessary EG concentration while preventing ice formation (ice ring scores): XRD, EG 15-30% (v/v), peptoid 1 and 5 mg/mL
Procedure: In order to increase the throughput of library analysis, a crystallographic x-ray diffraction (XRD) technique was used to evaluate ice crystal formation. For these experiments, the compounds named “Compound 2,” “Compound 8,” “Compound 10,” “Compound 11,” “Compound 12,” “Compound 13,” and “Compound 58” were tested. Compound 58 is similar to Compound 12, except that an arginine amino acid has been appended to the N-terminal end.
For these experiments, EG concentrations between 15% and 30% (v/v) were used. Typically, EG, DMSO, and other cryoprotectants are used during XRD sample analysis at concentrations of 35-40% (v/v) to vitrify solutions and avoid diffraction interference from ice crystals. Concentrations of 1 and 5 mg/mL of the peptoid and peptoid-peptide compounds were used. FIGS. 3A, 3B, and 3C illustrate exemplary XRD data under conditions of complete vitrification, partial vitrification with the presence of cubic ice, and freezing ([…]), respectively. FIG. 3D provides ice rings scores for a variety of EG concentrations and two concentrations of Compounds 2, 8, and 12.
“IceRing1” and “IceRing2” refer to ice formation scores, which range between 0 (no ice formation) and 15 (large ice formation).
The sample containing Compound 12 at a concentration of 5 mg/mL (0.5% (w/v)) and EG at a concentration of 17.5% (v/v) in water was ice-free after flash freezing. […] In the figures, black spots and rings represent ice crystals.

[2] = Larger volume flash freeze, rewarming and −20° C. storage assay; assay type: physicochemical; conditions: 22.5% EG
Procedure: In order to test the usefulness of compositions of the present invention at larger scales, experiments were performed using solution volumes that are similar to volumes used for standard egg and stem cell preservation. For these experiments, two samples, one containing 22.5% EG and buffer only, and another containing 22.5% EG and 5 mg/ml (0.5% w/v) of Compound 12 and buffer, were flash frozen in liquid nitrogen. […] The rewarming of the solutions in a 37° C. water bath led to an unexpected and beneficial result. The Compound 12 solution bypassed devitrification in less than 2 seconds upon rewarming (FIG. 6B, right), whereas chunks of ice were seen floating in the control sample (FIG. 6B, left) after 20 seconds. Condensation was seen on each of the tubes because the tubes were actually still much below room temperature.

HEK 293 cell line = assay: Cytotoxicity assay (MTT); assay type: cell-based, human
Procedure: A Tecan Genesis Robotic Workstation was used to prepare solutions in 96- and 384-well plates. Solutions contained culture media, buffers, a cryoprotectant composition of the present invention (Compound 12) or DMSO. Solutions were adjusted to the desired pH. Serial dilutions were performed to obtain solutions containing various concentrations of Compound 12 and DMSO. Control experiments were performed using only culture media.
For these experiments, cells were seeded at low density (i.e., 10% confluence), exposed to solutions containing Compound 12 or DMSO, and placed in a 37° C. incubator. The cells were allowed to grow until control cells that were treated only with empty vehicle approached 70% confluence (typically about 3 to 5 days). Assessment for compound cytotoxicity was via MTT assay.

HEK 293 cells = assay: Cryopreservation assay, flash freezing in liquid nitrogen, Calcein AM viability; assay type: cell-based, human
Procedure: Initial cryopreservation assays were performed using very simple solutions, with and without the addition of Compound 12, in order to minimize confounding outside factors. For this first set of experiments, two sample solutions were prepared. The first sample solution contained simple buffer and ethylene glycol (EG) at a concentration of 22.5% (v/v), and the second sample solution contained simple buffer, EG (22.5% (v/v)), and 5 mg/mL (0.5% (w/v)) of Compound 12.
HEK 293 cells were grown until 70% confluent, then treated with trypsin to remove adhesion proteins and yield free floating cells. Cells were counted using a hemocytometer and sample cell concentrations were adjusted to final concentrations of 10,000 cells per microliter. Cells were then compressed into tight pellets by centrifugation, and each sample was subsequently mixed with 20 μL of one of the sample solutions. Samples were then flash frozen by immersion in liquid nitrogen, followed by rewarming in a 37° C. water bath. After the freeze-thaw process, cells were suspended in a 400× volume of culture media for recovery. The positive control sample was treated with culture media at 37° C. and not subjected to the freeze-thaw process. The negative control sample was treated with culture media only during the freeze-thaw process. After recovery, cells were stained with Calcein AM for 30 minutes and cell viability was measured using a fluorescence plate reader.
A second set of experiments was performed to evaluate the cryopreservation potential of a formulation that contained 5 mg/mL of Compound 12 plus a mixture of glycols, disaccharides, and a general buffer. Post-thaw survival following vitrification in liquid nitrogen was evaluated as described above.

[3] = MilliQ water, slow cooled, −20° C., one hour; peptoid 9 mM, EG 160 mM
Procedure: In this experiment, four water-based samples were prepared in capillary tubes containing MilliQ purified water. One sample contained only water, and another sample contained 160 mM ethylene glycol (EG). The other two samples each contained a peptoid polymer at 9 mM. One of the peptoid polymer samples contained the peptoid polymer called “Compound 1,” while the other sample contained the peptoid polymer called “Compound 10.” The sequences of the peptoid polymers are as follows:
After sample preparation, all samples were slow cooled and incubated at −20° C. on a Peltier cooled plate. After one hour, samples were removed and immediately photographed using a digital camera attached to a 180× Stereo Zoom microscope (FIG. 2A).

Structure (SMILES): CCC(C)NCC(=O)N(CC(=O)N(CC(=O)N(CC(=O)N(CC(=O)N(CC(=O)N(CC(=O)N(CC(=O)N(CC(=O)N(CC(N)=O)CC(C)O)C(C)CC)C(C)CC)C(C)CC)CC(C)O)CC(C)O)CC(C)O)C(C)CC)C(C)CC (stereo not drawn) [Compound 2, Nsb-Nsb-Nsb-Nhp-Nhp-Nhp-Nsb-Nsb-Nsb-Nhp]
- reduction of necessary EG concentration while preventing ice formation (ice ring scores) [1]: significantly reduced necessary EG concentrations while preventing ice formation

Structure (SMILES): CCC(C)NCC(=O)N(CC(=O)N(CC(=O)N(CC(=O)N(CC(=O)N(CC(=O)N(CC(=O)N(CC(=O)N(CC(=O)N(CC(N)=O)CC(C)O)CC(C)O)CC(C)O)C(C)CC)CC(C)O)CC(C)O)CC(C)O)CC(C)O)CC(C)O (stereo not drawn) [Compound 8, Nsb-Nhp-Nhp-Nhp-Nhp-Nhp-Nsb-Nhp-Nhp-Nhp]
- reduction of necessary EG concentration while preventing ice formation (ice ring scores) [1]: significantly reduced necessary EG concentrations while preventing ice formation

Structure (SMILES): CCC(C)NCC(=O)N(CC(=O)N(CC(=O)N(CC(=O)N(CC(=O)N(CC(=O)N(CC(=O)N(CC(=O)N(CC(=O)N(CC(N)=O)C(C)CC)C(C)CC)CC(C)O)CC(C)O)C(C)CC)C(C)CC)CC(C)O)CC(C)O)C(C)CC (stereo not drawn) [Compound 12, Nsb-Nsb-Nhp-Nhp-Nsb-Nsb-Nhp-Nhp-Nsb-Nsb]
- vitrification on flash freezing in liquid nitrogen ([2]; buffer, 5 mg/ml (0.5% w/v)): complete vitrification with no ice formation; also recorded: vitrified
- state after overnight in −20° C. freezer ([2]; 100 μL, 5 mg/ml): remained unfrozen
- toxicity at the concentration that prevents ice formation (HEK 293 cell line; 0.5% w/v): did not show toxicity
- toxicity at four times the ice-preventing concentration (HEK 293 cell line; four times greater than 0.5% w/v): did not show significant toxicity
- toxicity compared with culture media alone (HEK 293 cell line; serial dilutions, 37° C., about 3 to 5 days): did not significantly deviate from the that of culture media alone
- vitrification of the cell sample during the freezing process (HEK 293 cells; buffer, EG 22.5% (v/v), 5 mg/mL, liquid nitrogen): complete vitrification without ice formation
- cell survival compared with EG alone (HEK 293 cells; buffer, EG 22.5% (v/v), 5 mg/mL, viability 12 hours post-thaw): greatly improved cell survival
- post-thaw survival of the cells (HEK 293 cells; vitrified with liquid nitrogen, viability 16 hours post-thaw, Compound 12 at 5 mg/mL plus glycols, disaccharides, general buffer): 98%
- ice formation after flash freezing ([1]; 5 mg/mL (0.5% (w/v)) with EG 17.5% (v/v) in water, stream of liquid nitrogen vapor): ice-free
- anti-icing effect in comparison to EG at the same molar concentration ([1]; 5 mg/mL with EG 17.5% (v/v)): 500 times
- reduction of necessary EG concentration while preventing ice formation (ice ring scores) [1]: significantly reduced necessary EG concentrations while preventing ice formation

Structure (SMILES): C[S+](C)[O-] [DMSO, dimethyl sulfoxide, reference compound]
- concentration at which warm survival for an extended period was not allowed (HEK 293 cell line; 37° C.): above 0.5 % (v/v)

Structure (SMILES): OCCO [EG, ethylene glycol]
- ice crystal formation [3]: significant ice crystal formation
